Source: ChEMBL document CHEMBL1201862, “PubChem BioAssay data set” (2004)
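Assay format: 96-well plates, 48-hour exposure. At the GI50, growth is halved.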 Calls of active or inactive are those of the source. Rule as the data show it: active = GI50 up to about 1.1 µM and inactive = higher.

Columns and labels:
Assay in all cases: DTP human tumour cell line panel, 48 h
SK-MEL-5 = system: SK-MEL-5
UO-31 = system: UO-31
Malme-3M = system: Malme-3M
EKVX = system: EKVX
SNB-75 = system: SNB-75
CCRF-CEM = system: CCRF-CEM
K562 = system: K562
UACC-257 = system: UACC-257
786-0 = system: 786-0
KM12 = system: KM12
OVCAR-5 = system: OVCAR-5
LOX IMVI = system: LOX IMVI
OVCAR-4 = system: OVCAR-4
T47D = system: T47D
MCF7 = system: MCF7
M14 = system: M14
UACC-62 = system: UACC-62
DU-145 = system: DU-145
Hs-578T = system: Hs-578T
MDA-N = system: MDA-N
NCI-H522 = system: NCI-H522
SF-268 = system: SF-268
SK-MEL-28 = system: SK-MEL-28
OVCAR-8 = system: OVCAR-8
SF-539 = system: SF-539
PC-3 = system: PC-3
MDA-MB-435 = system: MDA-MB-435
HCT-116 = system: HCT-116
A549 = system: A549
OVCAR-3 = system: OVCAR-3
RPMI-8226 = system: RPMI-8226
SN12C = system: SN12C
CAKI-1 = system: CAKI-1
SNB-19 = system: SNB-19
HT-29 = system: HT-29
SF-295 = system: SF-295
ACHN = system: ACHN
HCT-15 = system: HCT-15
SW-620 = system: SW-620
NCI-H460 = system: NCI-H460
HL-60 = system: HL-60
U-251 = system: U-251
BT-549 = system: BT-549
HOP-62 = system: HOP-62
SK-MEL-2 = system: SK-MEL-2
MOLT-4 = system: MOLT-4
NCI/ADR-RES = system: NCI/ADR-RES
MDA-MB-231 = system: MDA-MB-231
IGROV-1 = system: IGROV-1
RXF 393 = system: RXF 393
NCI-H23 = system: NCI-H23
TK-10 = system: TK-10
COLO 205 = system: COLO 205
NCI-H226 = system: NCI-H226
A498 = system: A498
SK-OV-3 = system: SK-OV-3
HCC 2998 = system: HCC 2998
SR = system: SR
HOP-92 = system: HOP-92

Measured: GI50

O=C(O)C(Cc1ccccc1)Cc1ccccc1
inactive: SK-MEL-5 > 100 µM | UO-31 > 100 µM | Malme-3M > 100 µM | EKVX > 100 µM | SNB-75 > 100 µM | CCRF-CEM > 100 µM | K562 > 100 µM | UACC-257 > 100 µM | 786-0 > 100 µM | KM12 > 100 µM | OVCAR-5 > 100 µM | LOX IMVI > 100 µM | OVCAR-4 > 100 µM | T47D > 100 µM | MCF7 > 100 µM | M14 > 100 µM | UACC-62 > 100 µM | DU-145 > 100 µM | Hs-578T 7.48 µM | MDA-N > 100 µM | NCI-H522 > 100 µM | SF-268 > 100 µM | SK-MEL-28 > 100 µM | OVCAR-8 > 100 µM | SF-539 > 100 µM | PC-3 > 100 µM | MDA-MB-435 > 100 µM | HCT-116 > 100 µM | A549 > 100 µM | OVCAR-3 > 100 µM | RPMI-8226 > 100 µM | SN12C > 100 µM | CAKI-1 > 100 µM | SNB-19 > 100 µM | HT-29 > 100 µM | SF-295 > 100 µM | ACHN > 100 µM | SW-620 > 100 µM | NCI-H460 > 100 µM | HL-60 > 100 µM | U-251 > 100 µM | BT-549 > 100 µM | HOP-62 > 100 µM | SK-MEL-2 > 100 µM | MOLT-4 > 100 µM | NCI/ADR-RES > 100 µM | MDA-MB-231 > 100 µM | IGROV-1 > 100 µM | RXF 393 > 100 µM | NCI-H23 > 100 µM | TK-10 > 100 µM | COLO 205 > 100 µM | NCI-H226 > 100 µM | A498 > 100 µM | SK-OV-3 > 100 µM
> 100 µM: HCT-15

Cc1cc(S(=O)(=O)Nc2nncn2-c2ccc(Cl)cc2)c(S)cc1Cl
> 10 µM: HCT-15
inactive: SK-MEL-5 > 10 µM | Malme-3M > 10 µM | EKVX > 10 µM | SNB-75 > 10 µM | CCRF-CEM > 10 µM | K562 > 10 µM | UACC-257 > 10 µM | 786-0 > 10 µM | KM12 > 10 µM | OVCAR-5 > 10 µM | LOX IMVI > 10 µM | OVCAR-4 > 10 µM | T47D > 10 µM | MCF7 > 10 µM | M14 > 10 µM | UACC-62 > 10 µM | DU-145 > 10 µM | Hs-578T > 10 µM | MDA-N > 10 µM | NCI-H522 > 10 µM | SF-268 > 10 µM | SK-MEL-28 > 10 µM | HCC 2998 > 10 µM | OVCAR-8 > 10 µM | SF-539 > 10 µM | PC-3 > 10 µM | MDA-MB-435 > 10 µM | HCT-116 > 10 µM | A549 > 10 µM | OVCAR-3 > 10 µM | RPMI-8226 > 10 µM | SN12C > 10 µM | CAKI-1 > 10 µM | SNB-19 > 10 µM | HT-29 > 10 µM | SF-295 > 10 µM | ACHN > 10 µM | SW-620 > 10 µM | NCI-H460 > 10 µM | HL-60 > 10 µM | U-251 > 10 µM | BT-549 > 10 µM | HOP-62 > 10 µM | SK-MEL-2 > 10 µM | MOLT-4 > 10 µM | NCI/ADR-RES > 10 µM | MDA-MB-231 > 10 µM | IGROV-1 > 10 µM | RXF 393 > 10 µM | NCI-H23 > 10 µM | TK-10 > 10 µM | COLO 205 > 10 µM | NCI-H226 > 10 µM | A498 > 10 µM | SK-OV-3 > 10 µM

CN(COC(=O)C(C)(C)C)c1nc(N(C)COC(=O)C(C)(C)C)nc(N(C)COC(=O)C(C)(C)C)n1
active: A549 < 0.01 µM
21 µM: HCT-15
inactive: SK-MEL-5 33.2 µM | SR 29.1 µM | UO-31 > 100 µM | Malme-3M 12.7 µM | EKVX > 100 µM | SNB-75 50.2 µM | CCRF-CEM 16.7 µM | K562 24 µM | UACC-257 98.2 µM | 786-0 28.6 µM | KM12 > 100 µM | OVCAR-5 > 100 µM | OVCAR-4 82.4 µM | T47D 56.6 µM | MCF7 33.8 µM | M14 19 µM | UACC-62 > 10 µM | DU-145 22.4 µM | Hs-578T > 100 µM | MDA-N 25.7 µM | NCI-H522 77.1 µM | SF-268 34.8 µM | SK-MEL-28 > 100 µM | HCC 2998 34.3 µM | OVCAR-8 > 10 µM | SF-539 > 100 µM | PC-3 77.8 µM | HCT-116 18.8 µM | OVCAR-3 > 100 µM | SN12C > 100 µM | CAKI-1 36.7 µM | SNB-19 > 100 µM | HT-29 34 µM | SF-295 94.6 µM | ACHN 32.3 µM | SW-620 22 µM | NCI-H460 60 µM | HL-60 29.2 µM | BT-549 34.4 µM | HOP-62 > 100 µM | SK-MEL-2 61.1 µM | MOLT-4 24.8 µM | NCI/ADR-RES 44.3 µM | MDA-MB-231 16.4 µM | IGROV-1 > 100 µM | RXF 393 21 µM | NCI-H23 > 100 µM | TK-10 > 100 µM | COLO 205 16 µM | NCI-H226 > 100 µM | A498 > 100 µM | SK-OV-3 > 100 µM

COC1CC(=O)C2C(=O)N(c3ccccc3)C(=O)C23C(C(=O)c2ccccc2)=C(C)NC13O (stereo not given)
8.49 µM: HCT-15
active: K562 < 0.01 µM | HOP-92 < 0.01 µM
inactive: SK-MEL-5 18.6 µM | UO-31 11.4 µM | Malme-3M 1.43 µM | EKVX 17.4 µM | CCRF-CEM 3.69 µM | UACC-257 22.9 µM | 786-0 2.12 µM | KM12 18 µM | OVCAR-5 18.9 µM | LOX IMVI 13.4 µM | OVCAR-4 4.92 µM | T47D 2.92 µM | MCF7 4.06 µM | M14 15.5 µM | UACC-62 16.4 µM | DU-145 13.5 µM | Hs-578T 22.2 µM | MDA-N 18.7 µM | NCI-H522 1.91 µM | SF-268 3.84 µM | SK-MEL-28 11 µM | OVCAR-8 21.1 µM | SF-539 5.32 µM | PC-3 10.4 µM | MDA-MB-435 14.5 µM | HCT-116 9.2 µM | A549 34.4 µM | OVCAR-3 2.12 µM | RPMI-8226 5.08 µM | SN12C 16.6 µM | CAKI-1 4.6 µM | SNB-19 21.4 µM | HT-29 16.9 µM | SF-295 32.4 µM | ACHN 12.9 µM | SW-620 5.02 µM | NCI-H460 21.7 µM | U-251 17.3 µM | BT-549 23.3 µM | HOP-62 20.2 µM | SK-MEL-2 17.1 µM | NCI/ADR-RES 20.9 µM | MDA-MB-231 17.1 µM | IGROV-1 10.4 µM | NCI-H23 15.3 µM | TK-10 6.32 µM | COLO 205 12.3 µM | A498 17.2 µM | SK-OV-3 19.9 µM

O=P1(C(O)/C=C/c2ccccc2)N(Cc2ccccc2)[C@@H]2CCCC[C@H]2N1Cc1ccccc1 (stereo not given in full)
inactive: SK-MEL-5 4.58 µM | UO-31 4.55 µM | Malme-3M 2.98 µM | EKVX 6.7 µM | SNB-75 12 µM | CCRF-CEM 5.19 µM | K562 3.74 µM | UACC-257 4.32 µM | 786-0 5.94 µM | KM12 4.66 µM | OVCAR-5 10.6 µM | LOX IMVI 3.8 µM | OVCAR-4 5.38 µM | T47D 4.76 µM | MCF7 3.24 µM | M14 4.39 µM | UACC-62 6.98 µM | DU-145 12.9 µM | Hs-578T 3.65 µM | MDA-N 4.62 µM | NCI-H522 2.42 µM | SF-268 4.05 µM | SK-MEL-28 11.2 µM | HCC 2998 3.9 µM | OVCAR-8 3.74 µM | PC-3 3.14 µM | MDA-MB-435 3.67 µM | HCT-116 3.54 µM | A549 4.62 µM | HOP-92 2.7 µM | OVCAR-3 6.64 µM | RPMI-8226 2.14 µM | SN12C 3.32 µM | CAKI-1 13.1 µM | SNB-19 6.22 µM | HT-29 3.67 µM | SF-295 4.42 µM | ACHN 3.94 µM | SW-620 6.87 µM | NCI-H460 3.55 µM | HL-60 2.71 µM | U-251 4.21 µM | BT-549 15 µM | HOP-62 11.1 µM | SK-MEL-2 2.62 µM | MOLT-4 2.93 µM | NCI/ADR-RES 9.53 µM | MDA-MB-231 10.8 µM | IGROV-1 3.41 µM | RXF 393 7.29 µM | NCI-H23 4.26 µM | TK-10 7.23 µM | COLO 205 2.42 µM | NCI-H226 4.51 µM | A498 3.02 µM | SK-OV-3 24 µM
6.14 µM: HCT-15
